Test results reported in ChEMBL document CHEMBL3621176, “Inhibitors of the Renal Outer Medullary Potassium Channel” (ACS Med Chem Lett, 2015).

Biological target: T1, ATP-sensitive inward rectifier potassium channel 1 (Homo sapiens, UniProt P48048)
T1 sequence (P48048 whole entry): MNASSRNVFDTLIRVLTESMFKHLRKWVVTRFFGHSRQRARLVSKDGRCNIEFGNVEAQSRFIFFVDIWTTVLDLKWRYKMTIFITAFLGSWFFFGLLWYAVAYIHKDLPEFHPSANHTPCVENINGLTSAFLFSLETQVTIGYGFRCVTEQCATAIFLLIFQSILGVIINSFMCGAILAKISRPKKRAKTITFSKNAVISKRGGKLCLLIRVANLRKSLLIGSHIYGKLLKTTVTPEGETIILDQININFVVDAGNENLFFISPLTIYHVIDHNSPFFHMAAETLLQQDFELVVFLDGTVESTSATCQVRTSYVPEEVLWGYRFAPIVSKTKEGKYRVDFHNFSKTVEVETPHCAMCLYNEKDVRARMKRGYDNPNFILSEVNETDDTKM
Experiment: Inhibition of human Kir1.1 expressed in HEK293 cells by thallium flux assay
Type: cell-based

IC50	SMILES
14 nM	Cc1nc(N2CCC3(CCN(C[C@H](O)c4ccc5c(c4C)COC5=O)CC3)C2)ccc1C#N
17 nM	Cc1cc(N2CCC3(CCN(C[C@H](O)c4ccc5c(c4C)COC5=O)CC3)C2)ncc1C#N
20 nM	Cc1cc(C#N)cnc1N1CCC2(CCN(C[C@H](O)c3ccc4c(c3C)COC4=O)CC2)C1
15 nM	Cc1c([C@@H](O)CN2CCC3(CC2)CCN(c2ccc(C#N)cc2)C3)ccc2c1COC2=O
14 nM	Cc1c([C@@H](N)CN2CCC3(CC2)CC(=O)N(c2ccc(C#N)cn2)C3)ccc2c1COC2=O
14 nM	Cc1c([C@@H](O)CN2CCC3(CC2)CCN(c2ncc(C#N)cn2)CC3)ccc2c1COC2=O
9 nM	Cc1c([C@@H](O)CN2CCC3(CC2)CCN(c2cnc(C#N)cn2)CC3)ccc2c1COC2=O
13 nM	Cc1c([C@@H](O)CN2CCC3(CC2)CCN(c2ccc(C#N)nn2)CC3)ccc2c1COC2=O
